Data from PubChem BioAssay (NCI).
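Test compounds were applied to cells in 96-well plates for 48 hours at 5 doses. GI50 is the concentration that inhibits growth by half. The concentration for full growth arrest is given as TGI.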

Legend:
Assay in all cases: NCI-60 cell line screen, 48 h
[1] = test system: MCF7 breast
[2] = test system: SR leukemia
[3] = test system: RXF 393 renal
[4] = test system: HCT-116 colon
[5] = test system: SF-295 CNS
[6] = test system: OVCAR-8 ovarian
[7] = test system: OVCAR-4 ovarian
[8] = test system: SF-539 CNS
[9] = test system: M14 melanoma
[10] = test system: NCI-H522 lung
[11] = test system: SNB-19 CNS
[12] = test system: BT-549 breast
[13] = test system: T-47D breast
[14] = test system: SW-620 colon
[15] = test system: SF-268 CNS
[16] = test system: SK-MEL-28 melanoma
[17] = test system: HOP-62 NSCLC
[18] = test system: SK-OV-3 ovarian
[19] = test system: NCI-H460 lung
[20] = test system: A549 NSCLC
[21] = test system: COLO 205 colon
[22] = test system: HOP-92 NSCLC
[23] = test system: LOX IMVI melanoma
[24] = test system: CAKI-1 renal
[25] = test system: KM12 colon
[26] = test system: A498 renal
[27] = test system: NCI/ADR-RES ovarian
[28] = test system: UO-31 renal
[29] = test system: TK-10 renal
[30] = test system: SK-MEL-2 melanoma
[31] = test system: MOLT-4 leukemia
[32] = test system: HS 578T breast
[33] = test system: OVCAR-5 ovarian
[34] = test system: K-562 leukemia
[35] = test system: 786-0 renal
[36] = test system: NCI-H23 lung
[37] = test system: HCC-2998 colon
[38] = test system: EKVX NSCLC
[39] = test system: UACC-62 melanoma
[40] = test system: MDA-MB-435
[41] = test system: ACHN renal
[42] = test system: MALME-3M melanoma
[43] = test system: HL-60(TB) leukemia
[44] = test system: U251 CNS
[45] = test system: CCRF-CEM leukemia
[46] = test system: NCI-H226 lung
[47] = test system: PC-3 prostate
[48] = test system: SK-MEL-5 melanoma
[49] = test system: HT29 colon
[50] = test system: SNB-75 CNS
[51] = test system: UACC-257 melanoma

O=C1CC[C@H](c2ccc(O)c3c2C(=O)[C@@H]2O[C@@H]2C3=O)c2cccc(O)c21
GI50 [1]: 1.17 µM | TGI [1]: 4.2 µM | GI50 [2]: 0.835 µM | TGI [2]: 4.57 µM | GI50 [3]: 1.73 µM | TGI [3]: 3.27 µM | GI50 [4]: 1.97 µM | TGI [4]: 3.89 µM | GI50 [5]: 15.4 µM | TGI [5]: 29.7 µM | GI50 [6]: 3.36 µM | TGI [6]: 11.2 µM | GI50 [7]: 3.51 µM | TGI [7]: 13.9 µM | GI50 [8]: 2.42 µM | TGI [8]: 5.46 µM | GI50 [9]: 1.9 µM | TGI [9]: 4.09 µM | GI50 [10]: 1.72 µM | TGI [10]: 3.33 µM | GI50 [11]: 10.6 µM | TGI [11]: 33.6 µM | GI50 [12]: 2.38 µM | TGI [12]: 6.42 µM | GI50 [13]: 1.27 µM | TGI [13]: 3.81 µM | GI50 [14]: 1.6 µM | TGI [14]: 4.92 µM | GI50 [15]: 2.32 µM | TGI [15]: 6.17 µM | GI50 [16]: 1.83 µM | TGI [16]: 3.62 µM | GI50 [17]: 3.1 µM | TGI [17]: 11.6 µM | GI50 [18]: 16.6 µM | TGI [18]: 30.4 µM | GI50 [19]: 3.74 µM | TGI [19]: 30.4 µM | GI50 [20]: 16.4 µM | TGI [20]: 40.9 µM | GI50 [21]: 1.24 µM | TGI [21]: 2.88 µM | GI50 [22]: 2.38 µM | TGI [22]: 5.12 µM | GI50 [23]: 0.976 µM | TGI [23]: 3.86 µM | GI50 [24]: 1.41 µM | TGI [24]: 9.33 µM | GI50 [25]: 3.51 µM | TGI [25]: 12.9 µM | GI50 [26]: 15.5 µM | TGI [26]: 29 µM | GI50 [27]: 3.01 µM | TGI [27]: 15.1 µM | GI50 [28]: 1.57 µM | TGI [28]: 3.16 µM | GI50 [29]: 1.49 µM | TGI [29]: 2.93 µM | GI50 [30]: 13 µM | TGI [30]: 26.9 µM | GI50 [31]: 2.71 µM | TGI [31]: 17.4 µM | GI50 [32]: 3.78 µM | TGI [32]: 97.2 µM | GI50 [33]: 4.55 µM | TGI [33]: 20.3 µM | GI50 [34]: 2.36 µM | TGI [34]: 10.4 µM | GI50 [35]: 1.79 µM | TGI [35]: 3.43 µM | GI50 [36]: 3.31 µM | TGI [36]: 20.4 µM | GI50 [37]: 2.12 µM | TGI [37]: 4.29 µM | GI50 [38]: 13.1 µM | TGI [38]: 28.2 µM | GI50 [39]: 1.75 µM | TGI [39]: 3.73 µM | GI50 [40]: 1.92 µM | TGI [40]: 4.2 µM | GI50 [41]: 1.46 µM | TGI [41]: 4.16 µM | GI50 [42]: 2.31 µM | TGI [42]: 6.37 µM | GI50 [43]: 1.93 µM | TGI [43]: 5.87 µM | GI50 [44]: 11.6 µM | TGI [44]: 25.2 µM | GI50 [45]: 1.05 µM | TGI [45]: 5.76 µM | GI50 [46]: 3.21 µM | TGI [46]: 12.4 µM | GI50 [47]: 2.52 µM | TGI [47]: 7.22 µM | GI50 [48]: 3.54 µM | TGI [48]: 12.1 µM | GI50 [49]: 2.33 µM | TGI [49]: 6.3 µM | GI50 [50]: 26.7 µM | TGI [50]: > 100 µM | GI50 [51]: 2.98 µM | TGI [51]: 9 µM
